Values of other authors in US12436146B2, “Cell-based assay for quantifying the potency and efficacy of cannabinoids and/or terpenoids, and methods of use thereof” (priority 2017, dated 2025).

What was measured:
[1] = biological target: T1, CB1 (Homo sapiens, UniProt P21554)
[2] = biological target: T2, CB2 (Homo sapiens, UniProt P34972)
[3] = biological target: T2, CB2; conditions: read-out: CB2 affinity (Ki)
[4] = biological target: T1, CB1; conditions: read-out: CB1 affinity (Ki)

T2 sequence (P34972 whole entry): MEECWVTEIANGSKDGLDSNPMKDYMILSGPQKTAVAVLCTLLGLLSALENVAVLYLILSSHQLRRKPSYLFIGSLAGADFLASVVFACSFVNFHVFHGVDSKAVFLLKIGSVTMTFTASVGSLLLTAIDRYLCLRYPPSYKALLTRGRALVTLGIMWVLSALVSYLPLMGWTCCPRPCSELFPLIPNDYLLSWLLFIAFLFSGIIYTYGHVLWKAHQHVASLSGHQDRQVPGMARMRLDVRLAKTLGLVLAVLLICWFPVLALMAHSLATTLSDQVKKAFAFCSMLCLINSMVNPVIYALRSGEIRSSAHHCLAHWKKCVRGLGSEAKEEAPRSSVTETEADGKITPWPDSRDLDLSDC
T1 sequence (P21554 whole entry): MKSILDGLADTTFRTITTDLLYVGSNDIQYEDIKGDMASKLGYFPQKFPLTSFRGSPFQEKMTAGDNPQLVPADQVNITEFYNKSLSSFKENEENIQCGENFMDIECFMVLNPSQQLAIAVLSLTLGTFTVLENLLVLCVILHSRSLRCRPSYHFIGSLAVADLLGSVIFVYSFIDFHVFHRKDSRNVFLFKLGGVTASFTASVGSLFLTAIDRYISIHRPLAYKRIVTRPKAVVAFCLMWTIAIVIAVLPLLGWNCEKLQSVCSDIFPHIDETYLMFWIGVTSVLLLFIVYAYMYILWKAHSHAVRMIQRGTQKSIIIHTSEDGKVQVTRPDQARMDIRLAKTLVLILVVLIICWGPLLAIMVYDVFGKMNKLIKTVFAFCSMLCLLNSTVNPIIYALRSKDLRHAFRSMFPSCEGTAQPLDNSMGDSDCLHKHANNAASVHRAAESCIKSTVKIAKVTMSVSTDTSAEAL

Compound	Efficacy towards CB1 [1]	Efficacy towards CB2 [2]	Ki [3] [nM]	Ki [4] [nM]
CCCCC/C=C\C/C=C\C/C=C\C/C=C\CCCC(=O)OC(CO)CO [2-Arachidonoylglycerol]	Full agonist			
CCCCC/C=C\C/C=C\C/C=C\C/C=C\CCCCOC(CO)CO [2-Arachidonyl glyceryl ether]	Full agonist	Full agonist	480	21
Cc1c(C(=O)c2cccc3ccccc23)c2ccc([N+](=O)[O-])cc2n1CC1CCCCN1C (stereo not shown) [AM-1221]	Agonist	Agonist	0.28	52.3
O=C(c1cccc2ccccc12)c1cn(CCCCCF)c2cc([N+](=O)[O-])ccc12 [AM-1235]	Agonist	Agonist	20.4	1.5
N#CCCCCn1cc(C(=O)c2cccc3ccccc23)c2ccccc21 [AM-2232]	Agonist	Agonist	1.48	0.28
O=C(O[C@@H]1Cc2c(O)cc(O)cc2O[C@@H]1c1cc(O)c(O)c(O)c1)c1cc(O)c(O)c(O)c1 [EGCG]	Agonist		> 50000	33600
CCCCCn1c(C)c(C(=O)c2cccc3ccccc23)c2ccccc21 [JWH-007]	Agonist	Agonist	2.94	9
CCCCCn1cc(C(=O)c2cccc3ccccc23)c2ccccc21 [JWH-018]	Full agonist	Full agonist	2.94 ± 2.65	9 ± 5
CCCCC/C=C\C/C=C\C/C=C\C/C=C\CCCC(=O)NCCc1ccc(O)c(O)c1 [N-Arachidonoyl dopamine]	Agonist			
CCCCCn1cc(C(=O)C2C(C)(C)C2(C)C)c2ccccc21 [UR-144]	Full agonist	Full agonist	1.8	150
COc1ccc(/C=C/c2cc(OC)cc(=O)o2)cc1 [Yangonin]			> 10000	
